Assay results published in article PMC6633864, “Intestinal Absorption Profile of Three Polygala Oligosaccharide Esters in Polygalae Radix and the Effects of Other Components in Polygalae Radix on Their Absorption” (Evidence-based Complementary and Alternative Medicine : eCAM, 2019).

Columns and labels:
[1] = parameters: method as in PMID 24043590; settings: cited from earlier work
[2] = Intestinal absorption in vitro by the everted rat gut sac model; type: in vitro ADME; settings: n = 5
[3] = Drug stability in blank intestinal circulation fluid; type: in vitro ADME, rat; settings: 37°C, 3 h
Experimental: The K–R culture solution was circulated in rat intestines for 3 h. PRE, SA5, SA6, and DISS were dissolved in the blank intestinal circulation fluid at concentrations of 12 mg/ml, 0.050 mg/ml, 0.086 mg/ml, and 0.198 mg/ml, respectively, and incubated at 37°C for 3 h. Aliquots of 1 ml samples were taken out at 0, 0.5, 1, 2, and 3 h after preparation for analysis.

[4] = in PRE, high concentration (SA5 0.075, SA6 0.130, DISS 0.296 mg/ml), 180 min
[5] = in PRE, low concentration (SA5 0.025, SA6 0.043, DISS 0.099 mg/ml), 180 min
[6] = monomer, high concentration (SA5 0.075, SA6 0.130, DISS 0.296 mg/ml)
[7] = monomer, low concentration (SA5 0.025, SA6 0.043, DISS 0.099 mg/ml)

COc1cc(/C=C/C(=O)OC[C@H]2O[C@H](O[C@]3(CO)O[C@H](CO)[C@@H](O)[C@@H]3OC(=O)/C=C/c3cc(OC)c(O)c(OC)c3)[C@H](O)[C@@H](O)[C@@H]2O)cc(OC)c1O [DISS, 3,6′-disinapoyl sucrose]
effect of ATP energy inhibitor sodium azide on absorption [1]: no effect
effect of P-gp inhibitor cyclosporine A on absorption [1]: no significant effect
effect of paracellular enhancers EDTA and sodium caprate (SC) on Papp [1]: could increase Papp
K a [2, 4]: 0.109 ± 0.010 ^∗∗,## μg·cm^−2·min^−1
P (%) percentage of absorption [2, 4]: 2.54 ± 0.19%
P app [2, 4]: 0.61 ± 0.057 ×10^−5cm/s
K a [2, 5]: 0.036 ± 0.0019 μg·cm^−2·min^−1
P (%) percentage of absorption [2, 5]: 2.55 ± 0.03%
P app [2, 5]: 0.61 ± 0.0033 ×10^−5cm/s
K a [2, 6]: 0.049 ± 0.022 ^∗∗##, μg·cm^−2·min^−1
P (%) percentage of absorption [2, 6]: 1.18 ± 0.04%
P app [2, 6]: 0.28 ± 0.079 ×10^−5cm/min
K a [2, 7]: 0.015 ± 0.0005 μg·cm^−2·min^−1
P (%) percentage of absorption [2, 7]: 1.13 ± 0.05%
P app [2, 7]: 0.26 ± 0.068 ×10^−5cm/min
stability in the blank intestinal circulation solution (in words) [3]: stable at 37 °C for 3 h
